{"source": "patent US5994363A", "about": "(priority 1998, dated 1999)", "key": {"[1]": {"test": "Apomorphine in human patients: erection and side effects (prior studies / general findings)", "assay_type": "in vivo", "conditions": "apomorphine dosage forms", "source_text": "The specific mechanisms by which apomorphine acts to produce an erectile response in a human patient are not yet completely understood, however."}, "[2]": {"test": "Nerve stimulated clitoral and vaginal wall blood flow in females", "assay_type": "in vivo", "conditions": "administration to females"}, "[3]": {"test": "Plasma concentration profile in dog at day 1, 90 and 180 (Example 2)", "assay_type": "in vivo", "conditions": "day 1, day 90 or day 180, 0.04, 0.1, 0.4 mg/kg", "procedure": "To assess whether the reduction in side effects could be attributable to changes in pharmacokinetic response, a plasma concentration profile study was conducted for each dosage group at day 1, day 90 and day 180."}, "[4]": {"test": "Adverse events in escalating dose tolerance study in psychogenic male erectile dysfunction (Example 5)", "assay_type": "in vivo, human", "conditions": "in vivo", "description": "Example 5-Summary. This clinical study was conducted in three phases. In Phase 1 subjects were selected from among patients complaining of impotence by a thorough physiological and psychological assessment. For example, one step in the assessment process required candidates to undergo Rigiscan measurement of penile rigidity and circumference following administration of a placebo tablet in single blind fashion. Phase 2 consisted of a dose escalation (4, 6, and 8 mg tablets) administered on 4 visits. An out-patient phase was conducted as Phase 3. Patients were given apomorphine HCL tablets to use at home.\nExample-5 Detailed Description (Clinical Study #94-03-01). The human study was conducted in three separate phases. Phase 1 consisted of selecting appropriate subjects and obtaining baseline information on sexual performance for each subject.\nThey were tested on four separate days at four separate doses (placebo and three active medication doses) with an interval of no less than six days between visits (i.e., one visit per week).\nIf the trial was aborted, the patient was given the choice of having Gravol 50 mg p.o. (an anti-emetic) administered at that time or enduring the adverse events as they arose. In either event, the patient was monitored by the research clinician until all side-effects had subsided. The patient was asked to return the following week for the next scheduled dose.\nDuring the five-week, home-use phase, subjects were to attempt coitus at least once each week after taking a single APO tablet. After each attempt, the subject and their partner completed a Sexual Function questionnaire (See FIGS. 15 and 16) which was later evaluated and used for final statistical analysis.\nThe data was analyzed by an inspection of the reported adverse events, the given dose of apomorphine and the phase of the study, i.e., in-patient (dose escalating) or take-home (constant dose) phases."}, "[5]": {"conditions": "cited from earlier work"}, "[6]": {"conditions": "cited from earlier work", "remark": "listed apart in the source"}, "clinical": {"test": "clinical", "conditions": "human, plasma"}, "[7]": {"conditions": "cited from earlier work", "remark": "listed apart in the source"}, "[8]": {"test": "Plasma concentration or dose threshold for adverse effects"}, "[9]": {"test": "Bioavailability by route of administration in dog (Example 3)", "conditions": "in vivo"}, "[10]": {"test": "Pharmacokinetic comparison of 4- and 8-mg sublingual tablets with 1 mg i.v. in healthy male volunteers (Example 4)"}}, "data": [{"smiles": "CN1CCc2cccc3c2[C@H]1Cc1ccc(O)c(O)c1-3", "note": "[apomorphine, (R)-5,6,6a,7-Tetrahydro-6-methyl-4H-dibenzo-[de,g] quinoline-10,11-diol]", "values": [{"measurement": "effectiveness in Parkinson's disease and psychogenic erectile dysfunction", "setting": "[1]", "result": "effective"}, {"measurement": "nerve stimulated clitoral intracavernosal and vaginal wall blood flow", "setting": "[2]", "result": "increases nerve stimulated clitoral intracavernosal blood flow and vaginal wall blood flow"}, {"measurement": "AUC, distribution, or elimination over repeated dosing", "setting": "[3]", "result": "No evidence of significant changes"}, {"measurement": "blood or urinalysis values", "setting": "[4]", "result": "no clinically significant changes"}, {"measurement": "nausea and vomiting after large doses", "setting": "[5]; large doses, mammals such as humans, dogs", "result": "usually results in nausea and vomiting"}, {"measurement": "emetic dose", "setting": "[5]; subcutaneous, recognized use as an emetic", "result": "~5", "unit": "milligram"}, {"measurement": "side effects / therapeutic usefulness (Segraves)", "setting": "[6]; erectile responses in human males", "result": "too many side effects to have therapeutic usefulness"}, {"measurement": "erection in psychogenic male patients", "setting": "[6]; psychogenic impotence", "result": "can indeed induce an erection in a psychogenic patient"}, {"measurement": "side effects at dose required for significant erectile response", "setting": "[6]; psychogenic impotence", "result": "usually accompanied by nausea or other serious undesirable side effects, including hypertension, flushing and diaphoresis (sweating)"}, {"measurement": "AUC", "setting": "clinical; 4 mg", "result": 0.527, "unit": "ng·h/mL"}, {"measurement": "Cmax", "setting": "clinical; 4 mg", "result": 0.83, "unit": "ng/mL"}, {"measurement": "AUC", "setting": "clinical; 8 mg", "result": 4.72, "unit": "ng·h/mL"}, {"measurement": "AUC", "setting": "clinical; iv, 1 mg", "result": 3.45, "unit": "ng·h/mL"}, {"measurement": "Cmax", "setting": "clinical; iv, 1 mg", "result": 8.3, "unit": "ng/mL"}, {"measurement": "lethality of larger infusion dose", "setting": "[7]; 1,500 μg/kg/hr, 14 day study", "result": "minimally lethal"}, {"measurement": "tolerated continuous infusion dose", "setting": "[7]; continuous infusion, 14 days", "result": 420, "unit": "µg/kg/h"}, {"measurement": "plasma concentration at which incidence of adverse side effects is minimal", "setting": "[8]; plasma concentration maintained at no more than", "result": "no more than 5.5 ng/ml"}, {"measurement": "threshold concentration (Cmax) for onset of adverse effects", "setting": "[8]; plasma, human male subjects, nausea", "result": "about 2.5 nanograms/milliliter"}, {"measurement": "threshold dose for most impotence patients", "setting": "[8]; sublingual tablet, week 1", "result": 2, "unit": "mg"}, {"measurement": "AUC", "setting": "[9]; 0.2 mg/kg", "result": 5.45, "unit": "ng·h/mL"}, {"measurement": "AUC", "setting": "[9]; po, 0.2 mg/kg", "result": 1.58, "unit": "ng·h/mL"}, {"measurement": "AUC", "setting": "[9]; sc, 0.04 mg/kg", "result": 8.06, "unit": "ng·h/mL"}, {"measurement": "MRT (mean residual time)", "setting": "[10]; i.v. 1 mg", "result": 40.3, "unit": "min"}, {"measurement": "Vd (volume of distribution @ β stage)", "setting": "[10]; s.l. tablet 8 mg", "result": 2.07, "unit": "L/kg"}]}]}
